Measurements published in US20250170131A1, “METHOD FOR THE TREATMENT OF ANTERIOR ISCHEMIC OPTIC NEUROPATHY” (Nicox SA, priority 2022, published 2025).
Entries after “also recorded” stand apart in the source; their conditions may differ.

How the values were obtained:
[1] = tested on: ischemia/reperfusion injury of the optic nerve induced by the subtenon injection of endothelin-1 (ET-1) in rabbits; assay: Electroretinogram (ERG) recording, ET-1 ischemia/reperfusion model (Example 1); type: in vivo, New Zealand white (NZW) rabbits
Procedure: (§1) These experiments were performed to determine the effects of [(2S)-1-(4-{[(3-chloro-4-methoxyphenyl)methyl]amino}-5-{[(pyrimidin-2yl)methyl]carbamoyl}pyrimidin-2-yl)pyrrolidin-2-yl]methyl 6-(nitrooxy)hexanoate (Compound (I)) on ocular vascular reactivity and retinal function after ocular topical dosing in a model of ischemia/reperfusion injury of the optic nerve induced by the subtenon injection of endothelin-1 (ET-1) in rabbits.
(§2) Adult male New Zealand white (NZW) rabbits weighting 1.5-2.0 kg were used. All animals received a single 30 microL/eye topical dose of Compound (I) (1% w/w) or vehicle (Kolliphor® EL 5.0% w/w, Myrj™ S40 3.0% w/w, Kollisolv® PEG400 2.8% w/w, H3BO3 0.19% w/w, Na2HPO4·7H2O 0.51% w/w, EDTA 0.10% w/w, BAK 0.01% w/w, HCl 0.5N q.s. pH 6.6, purified water q.s. 100 g) twice daily for 4 consecutive weeks starting 2 weeks after Endothelin-1 (ET-1) first dosing.
(§3) Ischemia/reperfusion injury was induced in each animal by subtenon injection (twice/week for 6 weeks) of 200 microL of 250 nM ET-1 dissolved in water using a lacrimal cannula under anaesthesia produced by ketamine and xylazine injected intramuscularly.
Electroretinogram (ERGs) recording took place under topical anaesthesia. The eyes were also dilated by topical application of tropicamide 1% and, when needed, adapted to darkness for at least 2 hours prior to ERGs recording. ERGs recording were performed with standard contact lens corneal electrodes. Specifically, the dark-adapted 0.01 ERG (mostly rod response), dark-adapted 3.0 ERG (combined rod/cone response) and, light-adapted 3.0 (mostly cone response) were recorded.
(§4) Measurements were taken prior to ET-1 first dose (baseline, time 0), then at the end of week 2 (prior to vehicle- or Compound (I) first day-first dose) and at the end of week 6.

[2] = tested on: ischemia/reperfusion injury of the optic nerve induced by the subtenon injection of endothelin-1 (ET-1) in rabbits; assay: Ophthalmic artery resistive index (OA-RI) by Echo Color Doppler, ET-1 ischemia/reperfusion model (Example 1); type: in vivo, New Zealand white (NZW) rabbits; conditions: for Ophthalmic artery resistive index (OA-RI), Baseline: prior to ET-1 dosing (time 0), before test item; for OA-RI, ET-1 (4-weeks) + Test items (2 weeks daily bid): week 4; for OA-RI, ET-1 (4-weeks) + Test items (2 weeks daily bid) / OA-RI, ET-1 (6 weeks) + Test items (4 weeks daily bid): 1% w/w, 30 microL/eye topical twice daily; for OA-RI, ET-1 (6 weeks) + Test items (4 weeks daily bid): week 6
Procedure: as §1, §2, §3
Ophthalmic Artery Resistive Index (OA-RI) measurements were taken using an Echo Color Doppler prior to ET-1 treatment (baseline, time 0), and weekly thereafter till the end of the study. Pourcelot resistive index for ophthalmic artery (OA-RI) was calculated using the following formula: (OA-PSV−OA-EDV)/OA-PSV where OA-PSV and OA-EDV refer to Ophthalmic Artery Peak Systolic Velocity and Ophthalmic Artery End Diastolic Velocity, respectively.
as §4

[3] = tested on: endothelin-1 (ET-1)-induced ischemia/reperfusion injury of optic nerve head and retina; assay: OA-RI by Echo-Color-Doppler, Compound (I) vs des-nitro Compound (Ia) (Example 2); type: in vivo, rabbits; conditions: for OA-RI, ET-1 + treatment Week 3 / OA-RI, ET-1 + treatment Week 4 / OA-RI, ET-1 + treatment Week 5 / OA-RI, ET-1 + treatment Week 6: Cpd (I) 1.0% / Cpd (Ia) 0.93% (equimolar), topical twice daily from week 3; for OA-RI, ET-1 (1st dose) Week 2: ET-1 only, before treatment; for Effect on OA-RI / ocular perfusion (in words): ET-1 rabbit model, equimolar doses, weeks 3-6; for OA-RI, Baseline Week 0: before ET-1 and treatment
Procedure: This study evaluated the ocular hemodynamic effects of repeated topical ocular dosing of Compound (I) in comparison to its des-nitro derivative Compound (Ia) administered at equimolar doses in rabbits with endothelin-1 (ET-1)-induced ischemia/reperfusion injury of optic nerve head and retina. Method: ET-1 was injected next to the optic nerve head twice/week for 6 weeks. Animals received Compound (I) (1% twice daily, 6 days/week), Compound (Ia) (0.93%, equimolar to 1% Compound (I)) or vehicle from week 3 until the end of ET-1 treatment. Functional endpoint was ophthalmic artery resistive index (OA-RI) determined using an Echo-Color-Doppler.

[4] = tested on: blood flow nearby the optic nerve head and choroid; conditions: systemic dosing; British J Ophthalmology 83 (1999); cited from earlier work

Compound	Effect on retinal function / ERG (in words) ([1]; ET-1 rabbit model, 4 weeks topical dosing)	ERG Amplitude, ET-1 (6 weeks) + Test items (4 weeks daily bid) ([1]; Light adapted 3.0 (Rod/cone response), 1% w/w, 30 microL/eye topical bid, ± S.D.) [μV]	ERG Amplitude, ET-1 (2 weeks) ([1]; Light adapted 3.0 (Rod/cone response), before first dose of test item, ± S.D.) [μV]	ERG Amplitude, Baseline ([1]; Light adapted 3.0 (Rod/cone response), prior to ET-1, ± S.D.) [μV]	Effect on OA-RI (in words) ([2]; ET-1 rabbit model, topical dosing)	OA-RI, ET-1 (2 weeks) ([2]; after 2 weeks ET-1 twice weekly, before first dose of test item, mean±SD)	Ophthalmic artery resistive index (OA-RI), Baseline ([2]; mean±SD)	Ophthalmic artery resistive index (OA-RI), Baseline ([2]; mean±SD, listed as Cpd (I))	OA-RI, ET-1 (4-weeks) + Test items (2 weeks daily bid) ([2]; mean±SD)	OA-RI, ET-1 (4-weeks) + Test items (2 weeks daily bid) ([2]; mean±SD, listed as Cpd (I))	OA-RI, ET-1 (6 weeks) + Test items (4 weeks daily bid) ([2]; mean±SD)	OA-RI, ET-1 (6 weeks) + Test items (4 weeks daily bid) ([2]; mean±SD, listed as Cpd (I))	OA-RI, ET-1 + treatment Week 3 [3]	OA-RI, ET-1 + treatment Week 4 [3]	OA-RI, ET-1 + treatment Week 5 [3]	OA-RI, ET-1 + treatment Week 6 [3]	OA-RI, ET-1 (1st dose) Week 2 [3]	Effect on OA-RI / ocular perfusion (in words) [3]	OA-RI, Baseline Week 0 [3]	Effect on ocular blood flow (in words) [4]
COc1ccc(CNc2nc(N3CCC[C@H]3COC(=O)CCCCCO[N+](=O)[O-])ncc2C(=O)NCc2ncccn2)cc1Cl [Compound (I), [(2S)-1-(4-{[(3-Chloro-4-methoxyphenyl)methyl]amino}-5-{[(pyrimidin-2-yl)methyl]carbamoyl}pyrimidin-2-yl)pyrrolidin-2-yl]methyl 6-(nitrooxy)hexanoate]	increased photoreceptor activity; also recorded: less impairment in the ERG wave amplitude than those treated with vehicle	131.6 ± 46.4	100.5 ± 33.3	115.9 ± 30.0	reduced ophthalmic artery resistive index (OA-RI)	0.48 ± 0.06	0.40±0.08	0.40 ± 0.08	0.43±0.09	0.43 ± 0.09	0.43±0.04	0.43 ± 0.04	0.41 ± 0.01	0.37 ± 0.03	0.37 ± 0.03	0.39 ± 0.03	0.46 ± 0.02	restored baseline OA-RI by week 6; also recorded: ameliorates ocular perfusion	0.34 ± 0.02	–
O=[N+]([O-])O[C@@H]1CO[C@H]2[C@@H]1OC[C@@H]2O [ISMN, isosorbide mononitrate]	–	–	–	–	–	–	–	–	–	–	–	–	–	–	–	–	–	–	–	increases blood flow nearby optic nerve head without changes to the choroidal compartment
COc1ccc(CNc2nc(N3CCC[C@H]3COC(=O)CCCCCO)ncc2C(=O)NCc2ncccn2)cc1Cl [Compound (Ia), [(2S)-1-(4-{[(3-Chloro-4-methoxyphenyl)methyl]amino}-5-{[(pyrimidin-2-yl)methyl]carbamoyl}pyrimidin-2-yl)pyrrolidin-2-yl]methyl 6-hydroxyhexanoate, reference compound]	–	–	–	–	–	–	–	–	–	–	–	–	0.49 ± 0.00	0.47 ± 0.01	0.51+0.02	0.48 ± 0.07	0.51 ± 0.01	not effective; also recorded: only resulted in minor activity	0.34 ± 0.02	–
